Measured values taken from patent US11040028B2, “Penicinotam derivative, preparation method and use thereof” (OCEAN UNIVERSITY OF CHINA, priority 2017, dated 2021).

Legend:
Type in all cases: cell-based
[1] = tested on: BHK-21 cells; assay: Anti-fibrosis activity test: inhibition of BHK-21 cell proliferation (CCK-8); settings: Mesocricetus auratus, BHK-21, 48 h
Procedure, shortened: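 Read-out: CCK-8 absorbance at 450 nm after 2 h, giving proliferation inhibition (1−Ai/Ao)×100% versus blank control, from which IC50 was derived. Cells had been treated with compounds for 48 h after 24 h adherence at 37° C. Pirfenidone served as positive control.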

[2] = tested on: human lung fibroblasts HFL1; assay: Anti-fibrosis activity test: inhibition of proliferation of human lung fibroblasts HFL1 (CCK-8); settings: Homo sapiens, HFL1, 48 h
Procedure, shortened: (§1)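 Exponentially growing cells, 2×10^4 cells/mL, attached 24 h. Dosed 48 h across concentrations (n=3). CCK-8 2 h → A450; IR vs blank; IC50.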

[3] = tested on: human hepatic stellate cells LX-2; assay: Anti-fibrosis activity test: inhibition of proliferation of human hepatic stellate cells LX-2 (CCK-8); settings: Homo sapiens, 48 h
Procedure, shortened: as §1

[4] = tested on: human fibrosarcoma cells HT-1080; assay: Anti-fibrosis activity test: inhibition of proliferation of human fibrosarcoma cells HT-1080 (CCK-8); settings: Homo sapiens, HT-1080, 48 h
Procedure, shortened: as §1

[5] = tested on: human dermal fibroblasts CCC-ESF-1; assay: Anti-fibrosis activity test: inhibition of proliferation of human dermal fibroblasts CCC-ESF-1 (CCK-8); settings: Fibroblast
Procedure, shortened: as §1

[6] = tested on: human embryonic lung fibroblast IMR-90; assay: Anti-fibrosis activity test: inhibition of proliferation of human embryonic lung fibroblast IMR-90 (CCK-8)
Procedure, shortened: as §1

[7] = tested on: cardiac fibroblast RAT-iCell-C002; assay: Anti-fibrosis activity test: inhibition of proliferation of cardiac fibroblast RAT-iCell-C002 (CCK-8); settings: Cardiac fibroblast, 48 h
Procedure, shortened: as §1

[8] = tested on: mouse macrophages (RAW264.7); assay: Lipopolysaccharide-induced NO secretion in macrophages (Griess); settings: Mus musculus, RAW264.7, 24 h, RAW264.7, LPS 1 μg/ml, a/b isomers given as first/second symbol, read-out: IC50 (μM), inhibition of lipopolysaccharide-induced NO secretion in macrophages
Procedure, shortened: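 RAW264.7 cells in DMEM with 10% FBS were treated with test compounds at several concentrations, then stimulated with LPS (1 μg/ml) for 24 hours. Nitrite in the supernatant was measured by Griess reaction at 548 nm, and percent inhibition was calculated against blank-medium controls.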

[9] = CCK-8, 48 hours after administration
[10] = human lung fibroblasts HFL1, CCK-8, 48 hours
[11] = human hepatic stellate cells LX-2, CCK-8, 48 hours
[12] = human fibrosarcoma cells HT-1080, CCK-8, 48 hours
[13] = human dermal fibroblasts CCC-ESF-1, CCK-8, 48 hours
[14] = human embryonic lung fibroblast IMR-90, CCK-8, 48 hours
[15] = cardiac fibroblast RAT-iCell-C002, CCK-8, 48 hours
[16] = Homo sapiens, CCC-ESF-1 cells, 48 h, CCK-8
[17] = Homo sapiens, IMR-90 cells, 48 h, CCK-8

| IC50 [4, 12] [mM] | IC50 [8] [µM] | IC50 ([4]; HT-1080 cells, 48 h, CCK-8) [mM] | Compound | IC50 [1, 9] [mM] | IC50 [2, 10] [mM] | IC50 [3, 11] [mM] | IC50 [5, 13] [mM] | IC50 [6, 14] [mM] | IC50 [7, 15] [mM] | IC50 ([1]; 48 h, CCK-8) [mM] | IC50 ([2]; HFL1 cells, 48 h, CCK-8) [mM] | IC50 ([3]; LX-2, 48 h, LX-2 cells, CCK-8) [mM] | IC50 [5, 16] [mM] | IC50 [6, 17] [mM] | IC50 ([7]; RAT-iCell-C002 cells, CCK-8) [mM] |
| --- | --- | --- | --- | --- | --- | --- | --- | --- | --- | --- | --- | --- | --- | --- | --- |
| 0.05 to 5 | 0.1 to 1 |  | O=C1c2c(n(Cc3ccccc3F)c3c(Cl)cccc3c2=O)-c2cccn21 [Compound 460a, 5-Chloro-4-(2-fluorobenzyl)-9H-pyrrolizino[1,2-b]quinoline-9,10(4H)-dione] | < 0.05 | < 0.05 | 0.05 to 5 | 0.05 to 5 | 0.05 to 5 | 0.05 to 5 |  |  |  |  |  |  |
| 0.05 to 5 | 10 to 50 |  | O=C1c2c(nc3c(Cl)cccc3c2OCc2ccccc2F)-c2cccn21 [Compound 460b, 5-chloro-9-((2-fluorobenzyl)oxy)-10H-pyrrolizino[1,2-b]quinolin-10-one] | 0.05 to 5 | 0.05 to 5 | 0.05 to 5 | 0.05 to 5 | 0.05 to 5 | 0.05 to 5 |  |  |  |  |  |  |
| 0.05 to 5 | 1 to 10 |  | O=C1c2c(nc3cccc(F)c3c2O)-c2cccn21 [Compound 467b, 8-fluoro-9-hydroxy-10H-pyrrolizino[1,2-b]quinolin-10-one] | 0.05 to 5 | 0.05 to 5 | 0.05 to 5 | 0.05 to 5 | 0.05 to 5 | 0.05 to 5 |  |  |  |  |  |  |
| 0.05 to 5 | 1 to 10 |  | O=C1c2c(n(Cc3ccccc3Cl)c3c(Cl)cccc3c2=O)-c2cccn21 [Compound 461a, 5-Chloro-4-(2-chlorobenzyl)-9H-pyrrolizino[1,2-b]quinoline-9,10(4H)-dione] | < 0.05 | 0.05 to 5 | < 0.05 | 0.05 to 5 | 0.05 to 5 | 0.05 to 5 |  |  |  |  |  |  |
| 0.05 to 5 | 0.1 to 1 |  | O=C1c2c(n(-c3ccc(Cl)cc3)c3ccc(OC(F)(F)F)cc3c2=O)-c2cccn21 [Compound 300a, 4-(4-Chlorophenyl)-7-(trifluoromethoxy)-9H-pyrrolizino[1,2-b]quinoline-9,10(4H)-dione] | 5 to 20 | 0.05 to 5 | 0.05 to 5 | 0.05 to 5 | 0.05 to 5 | 0.05 to 5 |  |  |  |  |  |  |
| 0.05 to 5 | 1 to 10 |  | O=C1c2c(nc3cc(Cl)ccc3c2OCc2ccccc2F)-c2cccn21 [Compound 504b, 6-chloro-9-((2-fluorobenzyl)oxy)-10H-pyrrolizino[1,2-b]quinolin-10-one] | 0.05 to 5 | 0.05 to 5 | 0.05 to 5 | 0.05 to 5 | 0.05 to 5 | 0.05 to 5 |  |  |  |  |  |  |
| 0.05 to 5 | 0.1 to 1 |  | O=C1c2c(nc3ccc(F)cc3c2O)-c2cccn21 [Compound 156b, 7-fluoro-9-hydroxy-10H-pyrrolizino[1,2-b]quinolin-10-one] | 0.05 to 5 | < 0.05 | 0.05 to 5 | 0.05 to 5 | 0.05 to 5 | 0.05 to 5 |  |  |  |  |  |  |
| 0.05 to 5 | 0.1 to 1 |  | O=C1c2c(n(Cc3ccc(Cl)cc3)c3cccc(C(F)(F)F)c3c2=O)-c2cccn21 [Compound 465a, 4-(4-Chlorobenzyl)-8-(trifluoromethyl)-9H-pyrrolizino[1,2-b]quinoline-9,10(4H)-dione] | 0.05 to 5 | 0.05 to 5 | 0.05 to 5 | 0.05 to 5 | 0.05 to 5 | 0.05 to 5 |  |  |  |  |  |  |
| 0.05 to 5 | 1 to 10 |  | O=C(O)COc1c2c(nc3ccc(F)cc13)-c1cccn1C2=O [Compound 153b, 2-((7-fluoro-10-oxo-10H-pyrrolizino[1,2-b]quinolin-9-yl)oxy)acetic acid] | 0.05 to 5 | 0.05 to 5 | 0.05 to 5 | 0.05 to 5 | 0.05 to 5 | 0.05 to 5 |  |  |  |  |  |  |
| 0.05 to 5 | 1 to 10 |  | C=CCn1c2c(c(=O)c3cc(F)c(N4CCNCC4)cc31)C(=O)n1cccc1-2 [Compound 349a, 4-Allyl-7-fluoro-6-(piperazin-1-yl)-9H-pyrrolizino[1,2-b]quinoline-9,10(4H)-dione] | 0.05 to 5 | 0.05 to 5 | 0.05 to 5 | 0.05 to 5 | 0.05 to 5 | 0.05 to 5 |  |  |  |  |  |  |
|  | 0.1 to 1 | 0.05 to 5 | O=C1c2c(c(=O)c3ccccc3n2CCCN2CCNCC2)-c2cccn21 [Compound 793a, 6-(3-(Piperazin-1-yl)propyl)-5H-pyrrolizino[2,1-b]quinoline-5,11(6H)-dione] |  |  |  |  |  |  | 0.05 to 5 | 0.05 to 5 | 0.05 to 5 | 0.05 to 5 | 0.05 to 5 | 0.05 to 5 |
|  | 1 to 10 | < 0.05 | O=C1c2c(c(=O)c3ccccc3n2CCN2CCOCC2)-c2cccn21 [Compound 785a, 6-(2-Morpholinoethyl)-5H-pyrrolizino[2,1-b]quinoline-5,11(6H)-dione] |  |  |  |  |  |  | 0.05 to 5 | 0.05 to 5 | 0.05 to 5 | 0.05 to 5 | 0.05 to 5 | 0.05 to 5 |
| 0.05 to 5 | 1 to 10 |  | CC(C)n1c2c(c(=O)c3cc(F)c(N4CCNCC4)cc31)C(=O)n1cccc1-2 [Compound 331a, 7-Fluoro-4-isopropyl-6-(piperazin-1-yl)-9H-pyrrolizino[1,2-b]quinoline-9,10(4H)-dione] | 0.05 to 5 | 0.05 to 5 | 0.05 to 5 | 0.05 to 5 | 0.05 to 5 | 0.05 to 5 |  |  |  |  |  |  |
| 0.05 to 5 | 10 to 50 |  | O=C1c2c(nc3cccc(C(F)(F)F)c3c2OCc2ccc(Cl)cc2)-c2cccn21 [Compound 465b, 9-((4-chlorobenzyl)oxy)-8-(trifluoromethyl)-10H-pyrrolizino[1,2-b]quinolin-10-one] | 0.05 to 5 | 0.05 to 5 | 0.05 to 5 | 0.05 to 5 | 0.05 to 5 | 0.05 to 5 |  |  |  |  |  |  |
| 0.05 to 5 | 1 to 10 |  | O=C1c2c(n(C3CC3)c3ccc(F)cc3c2=O)-c2cccn21 [Compound 144a, 4-Cyclopropyl-7-fluoro-9H-pyrrolizino[1,2-b]quinoline-9,10(4H)-dione] | 0.05 to 5 | 0.05 to 5 | < 0.05 | 0.05 to 5 | 0.05 to 5 | 0.05 to 5 |  |  |  |  |  |  |
| 0.05 to 5 | 1 to 10 |  | O=C1c2c(nc3ccc(F)cc3c2Oc2ccc(Cl)cc2)-c2cccn21 [Compound 133b, 9-(4-chlorophenoxy)-7-fluoro-10H-pyrrolizino[1,2-b]quinolin-10-one] | 0.05 to 5 | 0.05 to 5 | 0.05 to 5 | 0.05 to 5 | 0.05 to 5 | 0.05 to 5 |  |  |  |  |  |  |
| 0.05 to 5 | 1 to 10 |  | O=C1c2c(nc3cc(F)ccc3c2OCc2ccc(F)cc2)-c2cccn21 [Compound 490b, 6-fluoro-9-((4-fluorobenzyl)oxy)-10H-pyrrolizino[1,2-b]quinolin-10-one] | 0.05 to 5 | 0.05 to 5 | 0.05 to 5 | 0.05 to 5 | 0.05 to 5 | 0.05 to 5 |  |  |  |  |  |  |

| Compound | IC50 [4, 12] [mM] | IC50 [8] [µM] | IC50 ([4]; HT-1080 cells, 48 h, CCK-8) [mM] | IC50 [1, 9] [mM] | IC50 [2, 10] [mM] | IC50 [3, 11] [mM] | IC50 [5, 13] [mM] | IC50 [6, 14] [mM] | IC50 [7, 15] [mM] | IC50 ([1]; 48 h, CCK-8) [mM] | IC50 ([2]; HFL1 cells, 48 h, CCK-8) [mM] | IC50 ([3]; LX-2, 48 h, LX-2 cells, CCK-8) [mM] | IC50 [5, 16] [mM] | IC50 [6, 17] [mM] | IC50 ([7]; RAT-iCell-C002 cells, CCK-8) [mM] |
| --- | --- | --- | --- | --- | --- | --- | --- | --- | --- | --- | --- | --- | --- | --- | --- |
| O=C1c2nc3ccccc3c(OCCCCN3CCOCC3)c2-c2cccn21 [Compound 789b, 11-(4-morpholinobutoxy)-5H-pyrrolizino[2,1-b]quinolin-5-one] |  | 1 to 10 | 0.05 to 5 |  |  |  |  |  |  | 0.05 to 5 | 0.05 to 5 | 0.05 to 5 | 0.05 to 5 | 0.05 to 5 | 0.05 to 5 |
